Experimental data: patent US10577363B2, “Substituted piperidine compounds” (EPIZYME, INC., priority 2014, dated 2020)
Blank lines part the entries; values can stand above or below the compound they belong to.

Assays:
SMYD3 [1] = molecular target: T1, SMYD3 (Homo sapiens (Human), UniProt Q9H7B4); assay: SMYD3 cell assay (Trimethyl-MEKK2 In-Cell Western in 293T/17 cells); assay type: cell-based
Source text: Trimethyl-MEKK2-in-Cell Western Assay
MEM/Glutamax medium, Optimem Reduced Serum medium, penicillin-streptomycin, 0.05% trypsin and 1×D-PBS were purchased from Life Technologies, Grand Island, N.Y., USA. PBS-10× was purchased from Ambion, Life Technologies, Grand Island, N.Y., USA. PBS with Tween 20 (PBST (10×)) was purchased from KPL, Gaithersburg, Md., USA. Tet System FBS-approved FBS US Source was purchased from Clontech, Mountain View, Calif., USA. Odyssey blocking buffer, 800CW goat anti-rabbit IgG (H+L) antibody, 680CW Goat anti-mouse IgG (H+L) and Licor Odyssey infrared scanner were purchased from Licor Biosciences, Lincoln, Nebr., USA. Tri-methyl-Lysine [A260]-MEKK2 antibody, MEKK2 and SMYD3 plasmids were made at Epizyme. Anti-flag monoclonal mouse antibody was purchased from Sigma, St. Louis, Mo., USA. Methanol was purchased from VWR, Franklin, Mass., USA. 10% Tween 20 was purchased from KPL, Inc., Gaithersburg, Md., USA. Fugene was purchased from Promega, Madison, Wis., USA. The Biotek ELx405 was purchased from BioTek, Winooski, Vt., USA. The multidrop combi was purchased from Thermo Scientific, Waltham, Mass., USA.
Cell Treatment, in Cell Western (ICW) for Detection of Trimethyl-Lysine-MEKK2 and MEKK2.
Plasmids were prepared for delivery to cells by first mixing 1350 μL Opti-MEM with Fugene (81 μL) in a sterile Eppendorf and incubated for five minutes at room temperature (RT). […] Entire volume of Opti-MEM/Fugene mixture was then added to a microfuge tube containing DNA plasmid, mixed and then incubated×15 minutes at RT. […] Medium was then removed, and cells were washed once with PBS in the flask. Trypsin 0.05% (3 mL) was added and cells incubated for three minutes. Room temperature MEM+10% Tet system FBS was added and cells were mixed gently, and counted using the Vi-cell. Cells were seeded at 100,000 cells/mL in 50 μL MEM/10% Tet FBS/Pen/Strep to a 384 well black/clear poly-D-lysine coated plate containing test agent diluted in DMSO. The final top concentration of test compound was 40 μM. […] Plates were incubated×30 minutes at RT in low-airflow area, followed by incubation at 37° C. under 5% CO2 for 24 hours. Medium was aspirated from all wells of assay plates prior to fixation and permeabilization with ice cold (−20° C.) methanol (90 μL/well) for ten minutes. Plates were rinsed with PBS three times on BioTek ELx405. PBS was removed with a final aspiration, and Odyssey blocking buffer (50 μL/well) was added to each well and incubated for one hour at RT. Primary antibody solution was prepared (anti-trimethyl-MEKK2 at 1:600 dilution plus mouse anti-flag antibody at 1:10,000 dilution in diluent (Odyssey Blocking buffer+0.1% Tween 20)) and 20 μL per well was dispensed using the Multidrop Combi. Assay plates were then sealed with foil, and incubated overnight at 4° C. Plates were washed five times with PBS-Tween (1×) on Biotek ELx405 and blotted on paper towel to remove excess reagent.
First, the ratio for each well was determined by:
Each plate included fourteen control wells of DMSO only treatment (Minimum Inhibition) as well as fourteen control wells for maximum inhibition (Background). The average of the ratio values for each control type was calculated and used to determine the percent inhibition for each test well in the plate. Reference compound was serially diluted two-fold in DMSO for a total of nine test concentrations, beginning at 40 μM.
Percent inhibition was calculated (below).
Non-linear regression curves were generated to calculate the IC50 and dose-response relationship using triplicate wells per concentration of compound.

SMYD3 [2] = molecular target: T1, SMYD3; assay: SMYD3 biochemical assay (SPA, 3H-SAM methylation of MEKK2 protein substrate)
Procedure, shortened: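 Methylation of N-terminally GST-tagged MEKK2 by untagged full-length human SMYD3, using 3H-SAM, in pH 8.0 Tris buffer with TCEP, BSG and Tween 20; enzyme and compound sat 30 min at room temperature before substrate addition. Stopped with 100 uM (final) cold SAM; incorporation read by scintillation proximity as dpm/cpm.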

[3] = 293T/17 cells, read-out: SMYD3 Cell IC50 (μM)*
[4] = read-out: SMYD3 Biochem IC50 (μM)*
[5] = Table 1A, IC50 values are an average of n = 1 to n = 50, read-out: SMYD3 Cell IC50
[6] = Table 1A, IC50 values are an average of n = 1 to n = 50, read-out: SMYD3 Biochem IC50
[7] = average of n = 1 to n = 50, read-out: SMYD3 Biochem IC50

T1 sequence (Q9H7B4 whole entry): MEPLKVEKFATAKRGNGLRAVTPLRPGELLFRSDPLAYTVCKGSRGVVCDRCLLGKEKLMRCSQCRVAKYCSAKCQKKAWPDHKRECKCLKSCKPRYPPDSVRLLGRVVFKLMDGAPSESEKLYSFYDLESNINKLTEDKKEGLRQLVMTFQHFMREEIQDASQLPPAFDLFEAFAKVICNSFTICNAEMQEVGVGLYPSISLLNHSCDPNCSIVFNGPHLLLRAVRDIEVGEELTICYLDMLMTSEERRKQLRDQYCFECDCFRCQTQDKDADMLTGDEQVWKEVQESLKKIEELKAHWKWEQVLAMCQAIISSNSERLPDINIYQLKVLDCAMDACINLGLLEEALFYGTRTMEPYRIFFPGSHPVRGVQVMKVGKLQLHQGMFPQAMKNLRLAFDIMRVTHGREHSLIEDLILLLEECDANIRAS

Structure (SMILES): C[C@H]1C[C@@H](NC(=O)c2cc(C3CC3)on2)CCN1S(=O)(=O)CC1CCNCC1 (single isomer, unassigned) [Cpd. No. 417]
IC50 (SMYD3 [1]; [3]): 0.0508 µM
IC50 (SMYD3 [2]; [4]): 0.00307 µM

Structure (SMILES): C[C@@H]1C[C@H](NC(=O)c2cc(C3CC3)on2)CCN1S(=O)(=O)CC1CCNCC1 (single isomer, unassigned) [Cpd. No. 418]
IC50 (SMYD3 [1]; [3]): 0.197 µM
IC50 (SMYD3 [2]; [4]): 0.0172 µM

Structure (SMILES): O=C(N[C@@H]1C[C@H]2CC[C@@H](C1)N2S(=O)(=O)CCN1CCCC1)c1cc(C2CC2)on1 (single isomer, unassigned) [Cpd. No. 436]
IC50 (SMYD3 [1]; [3]): 0.285 µM
IC50 (SMYD3 [2]; [4]): 0.0613 µM

Structure (SMILES): C[C@@H]1C[C@H](NC(=O)c2cc(C3CC3)on2)CCN1C(=O)c1ccc(C2(N)CCC2)cc1 [compound 479, N-((2R,4R)-1-(4-(1-aminocyclobutyl)benzoyl)-2-methylpiperidin-4-yl)-5-cyclopropylisoxazole-3-carboxamide]
IC50 (SMYD3 [1]; [3]): 2.03 µM

Structure (SMILES): O=C(N[C@@H]1C[C@H]2CC[C@@H](C1)N2S(=O)(=O)c1ccc2[nH]c(=O)[nH]c2c1)c1cc(C2CC2)on1 [compound 494, 5-cyclopropyl-N-((1R,3s,5S)-8-((2-oxo-2,3-dihydro-1H-benzo[d]imidazol-5-yl)sulfonyl)-8-azabicyclo[3.2.1]octan-3-yl)isoxazole-3-carboxamide]
IC50 (SMYD3 [1]; [5]): 5.18 µM

Structure (SMILES): CC(C)[C@H]1C[C@@H](NC(=O)c2cc(C3CC3)on2)CCN1S(=O)(=O)CCCN [compound 501, N-((2R,4S)-1-((3-aminopropyl)sulfonyl)-2-isopropylpiperidin-4-yl)-5-cyclopropylisoxazole-3-carboxamide]
IC50 (SMYD3 [1]; [5]): 4.49 µM

Structure (SMILES): C[C@H]1C[C@@H](NC(=O)c2cc(C3CC3)on2)CCN1S(=O)(=O)c1cccc(C(F)(F)F)n1 [compound 519, 5-cyclopropyl-N-((2S,4S)-2-methyl-1-((6-(trifluoromethyl)pyridin-2-yl)sulfonyl)piperidin-4-yl)isoxazole-3-carboxamide]
IC50 (SMYD3 [2]; [6]): 0.204 µM

Structure (SMILES): C[C@H]1C[C@@H](NC(=O)c2cc(C3CC3)on2)CCN1S(=O)(=O)c1cccc(NCCCN)n1 [compound 520, N-((2S,4S)-1-((6-((3-aminopropyl)amino)pyridin-2-yl)sulfonyl)-2-methylpiperidin-4-yl)-5-cyclopropylisoxazole-3-carboxamide]
IC50 (SMYD3 [2]; [6]): 0.0501 µM

Structure (SMILES): C[C@H]1C[C@@H](NC(=O)c2cc(C3CC3)on2)CCN1S(=O)(=O)c1cccc(N(C)CCN2CCOCC2)n1 [compound 521, 5-cyclopropyl-N-((2S,4S)-2-methyl-1-((6-(methyl(2-morpholinoethyl)amino)pyridin-2-yl)sulfonyl)piperidin-4-yl)isoxazole-3-carboxamide]
IC50 (SMYD3 [2]; [6]): 4.5 µM

Structure (SMILES): COCCN(C)CCCS(=O)(=O)N1[C@@H]2CC[C@H]1C[C@@H](NC(=O)c1cc(C3CC3)on1)C2 [compound 665, 5-cyclopropyl-N-((1R,3r,5S)-8-((3-((2-methoxyethyl)(methyl)amino)propyl)sulfonyl)-8-azabicyclo[3.2.1]octan-3-yl)isoxazole-3-carboxamide]
IC50 (SMYD3 [2]; [7]): 0.0868 µM

Structure (SMILES): Cc1ccc(S(=O)(=O)N2C3CCC[C@@H]2C[C@@H](NC(=O)c2cc(C4CC4)on2)C3)nc1 [compound 763, 5-cyclopropyl-N-((1R,3S)-9-((5-methylpyridin-2-yl)sulfonyl)-9-azabicyclo[3.3.1]nonan-3-yl)isoxazole-3-carboxamide]
IC50 (SMYD3 [2]; [7]): 0.77 µM

Structure (SMILES): O=C(N[C@H]1C[C@H]2CC[C@@H](C1)N2S(=O)(=O)N1CCNCC1Cc1ccccc1)c1cc(C2CC2)on1 (stereo partly drawn) [compound 940, N-((1R,3r,5S)-8-((2-benzylpiperazin-1-yl)sulfonyl)-8-azabicyclo[3.2.1]octan-3-yl)-5-cyclopropylisoxazole-3-carboxamide]
IC50 (SMYD3 [2]; read-out: SMYD3 Biochem IC50*): 0.0475 µM

Second part, the compound after the results:

IC50 (SMYD3 [2]; [6]): 0.407 µM
Structure (SMILES): C[C@H]1C[C@@H](NC(=O)c2cc(C3CC3)on2)CCN1S(=O)(=O)c1ccc(N)nc1 [compound 522, N-((2S,4S)-1-((6-aminopyridin-3-yl)sulfonyl)-2-methylpiperidin-4-yl)-5-cyclopropylisoxazole-3-carboxamide]

IC50 (SMYD3 [2]; [6]): 1.08 µM
Structure (SMILES): C[C@H]1C[C@@H](NC(=O)c2cc(C3CC3)on2)CCN1S(=O)(=O)c1cccnc1N [compound 523, N-((2S,4S)-1-((2-aminopyridin-3-yl)sulfonyl)-2-methylpiperidin-4-yl)-5-cyclopropylisoxazole-3-carboxamide]

IC50 (SMYD3 [2]; read-out: SMYD3 Biochem IC50): 1.85 µM
Structure (SMILES): CNc1ncccc1S(=O)(=O)N1C2CCCC1CC(NC(=O)c1cc(C3CC3)on1)C2 (centres unmarked) [compound 524, 5-cyclopropyl-N-(9-((2-(methylamino)pyridin-3-yl)sulfonyl)-9-azabicyclo[3.3.1]nonan-3-yl)isoxazole-3-carboxamide]

IC50 (SMYD3 [2]; Table 2A, read-out: SMYD3 Biochem IC50): 0.0051 µM
Structure (SMILES): CNCCCCS(=O)(=O)N1CC[C@H](NC(=O)c2cc(C3CC3)on2)C[C@@H]1C [compound 561, 5-cyclopropyl-N-((2S,4S)-2-methyl-1-((4-(methylamino)butyl)sulfonyl)piperidin-4-yl)isoxazole-3-carboxamide]

IC50 (SMYD3 [1]; average of n = 1 to n = 50, read-out: SMYD3 Cell IC50): 0.93 µM
Structure (SMILES): C[C@@H]1CN(S(=O)(=O)CCCNCc2ccccc2)[C@H](C)C[C@@H]1NC(=O)c1cc(C2CC2)on1 [compound 681, N-((2R,4S,5R)-1-((3-(benzylamino)propyl)sulfonyl)-2,5-dimethylpiperidin-4-yl)-5-cyclopropylisoxazole-3-carboxamide]

IC50 (SMYD3 [2]; [7]): 0.218 µM
Structure (SMILES): C[C@@H]1C[C@@H](NC(=O)c2cc(C3CC3)on2)CCN1S(=O)(=O)C(CCN)c1ccccc1 (stereo partly drawn) [compound 704, N-((2R,4S)-1-((3-amino-1-phenylpropyl)sulfonyl)-2-methylpiperidin-4-yl)-5-cyclopropylisoxazole-3-carboxamide]

IC50 (SMYD3 [2]; [7]): 0.498 µM
Structure (SMILES): Nc1cccc(S(=O)(=O)N2[C@@H]3CCC[C@H]2C[C@H](NC(=O)c2cc(C4CC4)on2)C3)n1 [compound 740, N-((1R,3s,5S)-9-((6-aminopyridin-2-yl)sulfonyl)-9-azabicyclo[3.3.1]nonan-3-yl)-5-cyclopropylisoxazole-3-carboxamide]

IC50 (SMYD3 [2]; [7]): 0.512 µM
Structure (SMILES): Cc1ccnc(S(=O)(=O)N2CC[C@H](NC(=O)c3cc(C4CC4)on3)C[C@@H]2C)c1 [compound 741, 5-cyclopropyl-N-((2S,4S)-2-methyl-1-((4-methylpyridin-2-yl)sulfonyl)piperidin-4-yl)isoxazole-3-carboxamide]

IC50 (SMYD3 [2]; [7]): 0.742 µM
Structure (SMILES): CC1(C(=O)N2CCC(NC(=O)c3cc(C4CC4)on3)CC2)CCNCC1 [compound 760, 5-cyclopropyl-N-(1-(4-methylpiperidine-4-carbonyl)piperidin-4-yl)isoxazole-3-carboxamide]

IC50 (SMYD3 [2]; read-out: SMYD3 Biochem IC50*): 0.00692 µM
Structure (SMILES): C[C@H]1C[C@@H](NC(=O)c2cc(C3CC3)on2)CCN1S(=O)(=O)C[C@H]1CCCNC1 [compound 854, 5-cyclopropyl-N-((2S,4S)-2-methyl-1-((((S)-piperidin-3-yl)methyl)sulfonyl)piperidin-4-yl)isoxazole-3-carboxamide]

IC50 (SMYD3 [2]; read-out: SMYD3 Biochem IC50*): 0.01 µM
Structure (SMILES): C[C@H]1C[C@@H](NC(=O)c2cc(C3CC3)on2)CCN1S(=O)(=O)C[C@@H]1CCCNC1 [compound 875, 5-cyclopropyl-N-((2S,4S)-2-methyl-1-((((R)-piperidin-3-yl)methyl)sulfonyl)piperidin-4-yl)isoxazole-3-carboxamide]
